# US20250034196A1, “ESTER DERIVATIVES OF N4-HYDROXYCYTIDINE AND USE THEREOF” (priority 2021, published 2025)
# Legend:
# in vitro [1] = assay type: in vitro ADME; settings: microsomes, pH 7.4
# Experimental: (§1) Preparation of Solutions: Stock solution (10 mM) of each of test compounds was prepared in DMSO. The stock solution for each compound was then diluted into 100 μM with acetonitrile.
# (§2) Microsome Incubations: Incubation mixtures were prepared in a total volume of 200 μL with final component concentrations as follows: 0.1M PBS (pH 7.4), NADPH (2 mM) and liver microsomes (0.2 mg/mL) as well as test compound (1 μM) or Molnupiravir (1 μM) as a positive control, wherein the NADPH was added after a 5-min preincubation of all other components at 37° C. Pipette-mixed to achieve a homogenous suspension and immediately transferred 20 μL incubate as a 0 min sample to wells in a “Quenching” plate followed by adding 200 μL of acetonitrile with metolazone as IS and pipette-mixing. At 2, 5, 10, and 45 min, pipette-mixed the incubate and serially transfer samples of 20 μL incubate per time point to wells in a separate “Quenching” plate followed by adding 200 μL of acetonitrile with metolazone as IS and pipette-mixing.
# (§3) Sample Analysis: The 96-well plate was centrifuged at 6000 g for 10 min. The supernatant was injected onto the LC-MS/MS system for analysis.
# [2] = tested on: SARS-CoV-2, Hongkong strain; assay type: in vivo, K18 hACE2 transgenic mice
# in vivo = experiment: in vivo; parameters: species or system Beagle Dogs; settings: dog, po; for Cmax: Cmax of EX-2/CH2101; for Tmax: Tmax of EX-2/CH2101; for AUC(0-t): AUClast of EX-2/CH2101; for concentration at 0.25 hr / concentration at 0.5 hr / concentration at 1 hr / concentration at 0.083 hr: Plasma concentration of EX-2/CH2101
# Experimental: Example 174: Pharmacokinetic Study of EX-2 (CH2101), Molnupiravir (CH2017) and its Metabolite NHC (CH2018) Following a Single PO Administration of EX-2 (CH2101) or Molnupiravir (CH2017) in Male and Female Beagle Dogs
# Both test compounds were prepared in 1% methyl cellulose (400 cps, SIGMA, SLCF9694) solution in purified water.
# A total of 6 male+6 female Beagle Dogs, approximately 7-13 kg of bodyweight, were originally purchased from Marshall Biotechnology Co., Ltd. The animals were fasted overnight prior to dosing and food was re-provided after 4 hours post dosing.
# The animals were restrained manually, and approximately 1 mL of blood at each time point was collected into pre-cooled EDTA-K2 tubes via cephalic or saphenous veins. Blood samples were centrifuged at 4° C. (4000 rpm. 5 min) to obtain plasma within 30 min after sample collection. All samples were stored at approximately −80° C. until analysis. The backup samples will be discarded after the in vivo experiment has been completed for two months unless requested.
# Microsome stability = assay type: in vitro ADME, Monkey; settings: monkey, microsomes, pH 7.4
# Experimental: as §1, §2, §3
# in vitro [3] = assay type: in vitro ADME; settings: plasma
# Experimental: as §1
# Plasma Incubations: Plasma incubations were conducted in duplicate in 96-well plate at 37° C. Plasma was prewarmed in a total volume of 198 μL for 5 min at 37° C., then added 2 μL of 100 μM test compound into an incubation well containing plasma, pipette-mixed to achieve a homogenous suspension and immediately transferred 20 μL incubate as a 0 min sample to wells in a “Quenching” plate followed by adding 200 μL of acetonitrile with metolazone as internal standard (IS) and pipette-mixing. At 2, 5, 60, and 90 min, pipette-mixed the incubate and serially transfer samples of 20 μL incubate per time point to wells in a separate “Quenching” plate followed by adding 200 μL of acetonitrile with metolazone as IS and pipette-mixing.
# as §3
# in vitro [4] = settings: African green monkey
smiles,measurement,setting,value
CC(=O)ONc1ccn([C@@H]2O[C@H](CO)[C@@H](O)[C@H]2O)c(=O)n1 [EX-2],half-life at 1 µM,in vitro [1]; dog,76.3 min
same,half-life at 1 µM,in vitro [1]; human,33.5 min
same,half-life at 1 µM,in vitro [1]; mouse,16.2 min
same,half-life at 1 µM,in vitro [1]; rat,288 min
same,Survival proportions,"[2]; 14-day study, twice daily days 0-6, CH2101 450 mg/kg PO, Remdesivir 25 mg/kg SC",100%
same,Antiviral efficacy in vivo (conclusion),[2]; 450 mpk PO twice daily,optimal antiviral efficacy in vivo
same,Clinical symptoms (observation),[2]; CH2101 450 mpk PO twice daily days 0-6,no infection-related clinical symptom was observed
same,Body weights (observation),[2]; EX-2/CH2101 450 mpk PO twice daily days 0-6,without notable body weight loss observed
same,Virus titer in lung,"[2]; day 5, plaque assay, mean, twice daily days 0-4, CH2101 450 mpk PO, Remdesivir 25 mpk SC",2.64 Log 10 plaque#/g lung
same,"Virus titer in lung, mean difference vs. group 1 (Vehicle group)","[2]; day 5, CH2101 450 mpk PO, Remdesivir 25 mpk SC",3.31 Log
same,Median survival time,"[2]; twice daily days 0-6, CH2101 450 mg/kg PO, Remdesivir 25 mg/kg SC",Undefined
same,Cmax,"in vivo; both sexes, Beagle, 20 mg/kg",0.0128 µg/mL
same,Tmax,"in vivo; both sexes, Beagle, 20 mg/kg",15 min
same,AUC(0-t),"in vivo; both sexes, beagle, 10 mg/kg",5.07 ng·h/mL
same,Cmax,"in vivo; both sexes, beagle, 10 mg/kg",0.0155 µg/mL
same,concentration at 0.25 hr,"in vivo; both sexes, beagle, 10 mg/kg",0.016 µg/mL
same,concentration at 0.5 hr,"in vivo; both sexes, beagle, 10 mg/kg",0.0107 µg/mL
same,concentration at 1 hr,"in vivo; both sexes, beagle, 10 mg/kg",0.0122 µg/mL
same,Tmax,"in vivo; both sexes, beagle, 10 mg/kg",26.3 min
same,AUC(0-t),"in vivo; both sexes, beagle, 20 mg/kg",5.43 ng·h/mL
same,concentration at 0.083 hr,"in vivo; both sexes, beagle, 20 mg/kg",0.0112 µg/mL
same,concentration at 0.25 hr,"in vivo; both sexes, beagle, 20 mg/kg",0.0128 µg/mL
same,concentration at 0.5 hr,"in vivo; both sexes, beagle, 20 mg/kg",0.0105 µg/mL
same,concentration at 1 hr,"in vivo; both sexes, beagle, 20 mg/kg",0.0113 µg/mL
same,Plasma concentration of EX-1/NHC/CH2018,"in vivo; both, Beagle, 20 mg/kg, 6 hr",0.401 µg/mL
same,Plasma concentration of EX-1/NHC/CH2018,"in vivo; both, Beagle, 20 mg/kg, 8 hr",0.138 µg/mL
same,Plasma concentration of EX-1/NHC/CH2018,"in vivo; both, Beagle, 20 mg/kg, 24 hr",0.0177 µg/mL
same,AUCmale/female of EX-1/NHC/CH2018,"in vivo; both, beagle, 20 mg/kg",69.2%
same,AUCmale/female of EX-2/CH2101,"in vivo; both, beagle, 20 mg/kg",96.1%
same,Plasma concentration of EX-1/NHC/CH2018,"in vivo; both, beagle, 20 mg/kg, 0.083 hr",0.148 µg/mL
same,Plasma concentration of EX-1/NHC/CH2018,"in vivo; both, beagle, 20 mg/kg, 0.25 hr",2.014 µg/mL
same,Plasma concentration of EX-1/NHC/CH2018,"in vivo; both, beagle, 20 mg/kg, 0.5 hr",3.703 µg/mL
same,Plasma concentration of EX-1/NHC/CH2018,"in vivo; both, beagle, 20 mg/kg, 1 hr",6.118 µg/mL
same,Plasma concentration of EX-1/NHC/CH2018,"in vivo; both, beagle, 20 mg/kg, 2 hr",5.958 µg/mL
same,Plasma concentration of EX-1/NHC/CH2018,"in vivo; both, beagle, 20 mg/kg, 4 hr",1.6 µg/mL
same,AUC(0-t),"in vivo; female, Beagle, 20 mg/kg",5.54 ng·h/mL
same,Cmax,"in vivo; female, Beagle, 20 mg/kg",0.013 µg/mL
same,Tmax,"in vivo; female, Beagle, 20 mg/kg",15 min
same,Cmax of EX-2/CH2101,"in vivo; female, beagle, 10 mg/kg",0.014 µg/mL
same,Tmax of EX-2/CH2101,"in vivo; female, beagle, 10 mg/kg",60 min
same,Cmax,"in vivo; female, beagle, 10 mg/kg",0.0122 µg/mL
same,concentration at 0.25 hr,"in vivo; female, beagle, 10 mg/kg",0.014 µg/mL
same,concentration at 1 hr,"in vivo; female, beagle, 10 mg/kg",0.0122 µg/mL
same,concentration at 0.25 hr,"in vivo; female, beagle, 20 mg/kg",0.013 µg/mL
same,concentration at 1 hr,"in vivo; female, beagle, 20 mg/kg",0.0113 µg/mL
same,AUC(0-t),"in vivo; male, Beagle, 20 mg/kg",5.32 ng·h/mL
same,Cmax,"in vivo; male, Beagle, 20 mg/kg",0.0125 µg/mL
same,Tmax,"in vivo; male, Beagle, 20 mg/kg",15 min
same,AUC(0-t),"in vivo; male, beagle, 10 mg/kg",5.07 ng·h/mL
same,Cmax,"in vivo; male, beagle, 10 mg/kg",0.0179 µg/mL
same,concentration at 0.25 hr,"in vivo; male, beagle, 10 mg/kg",0.0179 µg/mL
same,concentration at 0.5 hr,"in vivo; male, beagle, 10 mg/kg",0.0107 µg/mL
same,Tmax,"in vivo; male, beagle, 10 mg/kg",15 min
same,concentration at 0.083 hr,"in vivo; male, beagle, 20 mg/kg",0.0112 µg/mL
same,concentration at 0.25 hr,"in vivo; male, beagle, 20 mg/kg",0.0125 µg/mL
same,concentration at 0.5 hr,"in vivo; male, beagle, 20 mg/kg",0.0105 µg/mL
same,half-life at 1 µM,Microsome stability,50.8 min
same,half-life at 1 µM,in vitro [3]; dog,79.1 min
same,half-life at 1 µM,in vitro [3]; human,11.6 min
same,half-life at 1 µM,in vitro [3]; monkey,29.3 min
same,half-life at 1 µM,in vitro [3]; mouse,7.4 min
same,half-life at 1 µM,in vitro [3]; rat,87.8 min
same,CC50 at 4 days,in vitro [4],18.2 µM
